Entries after “also recorded” stand apart in the source; their conditions may differ.
Experiments:
[1] = system: human retinal pigment epithelial cell line ARPE-19; assay: Protection efficiency test of retinal pigment epithelial cell (NaIO3-induced apoptosis, MTT assay); format: cell-based; conditions: 10 mM NaIO3 then 1 μM compound
Protocol: A human retinal pigment epithelial cell line ARPE-19 was treated with 10 mM of NaIO3, which is a retinal pigment epithelial cell apoptosis inducing agent, to induce apoptosis and then, it was treated with compound 2 of the invention, that is, (5-(1,1-dioxo-thiomorpholine-4-yl)methyl-2-phenyl-1H-indole-7-yl)-(1-methanesulfonyl-piperidine-4-yl)-amine (Enzo Life Sciences, Inc.) of 1 μM, and the compound treatment group and the non-treatment group were analyzed about their apoptosis degree using an MTT assay and survived cells were comparatively analyzed.

white rat retina explant = assay: Retinal nerve cell protection efficiency test on low oxygen stimulation (retinal explant culture); format: cell-based; conditions: hypoxic chamber 30 min, 1 μM compound, cultivated 3 days
Protocol: A white rat retina was cultivated overnight under explant culture conditions and then, damaged with low oxygen in a hypoxic chamber for 30 min., and cultivated for 3 days with or without being treated with compound 2 of 1 μM, and after the cultivation, the obtained retinal explants were stained and observed using a microscope.

corneal wound models = assay: Corneal wound healing effect test (corneal epithelium removal model); format: in vivo, New Zealand white rabbits
Protocol: It was examined whether the compounds of formula (1) show clinically stable corneal wound healing effects in ophthalmologic surgery such as LRP (laser reversal of presbyopia), LASIK (laser assisted in-situ keratomileusis) and LASEK (laser assisted sub-epithelial keratomileusis). For this, 16 New Zealand white rabbits of 2.0˜2.5 kg were prepared as test animals, anesthetized via intramuscular injection with 15 mg/kg of Zoletil and 5 mg/kg of Xylazine, and then their corneal epitheliums with diameters of 10-12 mm or so were removed using a surgery blade (No. 15) and a rotary epithelial scrubber to produce corneal wound models. At 30 min. after the above-mentioned surgery, two drops of compound 1, that is, (tetrahydropyran-4-ylmethyl)-[2-phenyl-5-(1,1-dioxo-thiomorpholine-4-yl)methyl-1H-indole-7-yl]amine) (KDR Biotech. Co., Ltd., Seoul, Korea) of 50 μM were applied to the experimental group and two drops of a physiological saline were applied to the control group and then, they wore contact lenses, and one drop of the same medicines was applied at 12-hour intervals. To measure a wound area in the experimental group and the control group, their corneal surfaces were stained with Fluorescin using Fluorescin (Haag-Streit International, Switzerland) strips and their diameters were measured using a microcaliper at 24-hour intervals. In the meantime, for the histological evaluation of the experimental group and the control group, they were anesthetized with 25% urethane on the first, second and third day to extract their eyeballs and then, their anterior eye parts including cornea were embedded in wax (Polyscience, USA) to produce 5-μm fragments, which were then stained with Hematoxylin & Eosin and observed using a microscope.

[2] = system: MNU (N-methyl-N-nitrosourea)-induced retinal degeneration models; assay: Efficiency test in MNU-induced retinal degeneration animal model; format: in vivo, Sprague-Dawley rats
Protocol: The compounds of formula (1) were applied to retinal degeneration which is hard to cure or incurable to evaluate their effects. For this, 3 250-g Sprague-Dawley rats were prepared as a test animal, and injected with 75 mg/kg of N-methyl-N-nitrosourea (MNU) via an intraperitoneal route to induce retinal degeneration, thereby to produce retinal degeneration models. At 30 min. after the retinal degeneration induction, 10 μl of compound 1, that is, (tetrahydropyran-4-ylmethyl)-[2-phenyl-5-(1,1-dioxo-thiomorpholine-4-yl)methyl-1H-indole-7-yl]amine) (KDR Biotech. Co., Ltd., Seoul, Korea) of 50 μM and a physiological saline was injected into the vitreous body of the experimental group and the control group, respectively and then, the same medicines were injected via the same methods after 72 hours of the retinal degeneration induction. To evaluate the healing effects of retinal degeneration in the experimental group and the control group, on the 5th day of the retinal degeneration induction, the animals were anesthetized using 8% chloral hydrate (0.5 mg/kg) and subjected to electroretinogram (ERG) test (UTAS-2000; LKC Technologies, USA), in which scotopic response was recorded as a single flash response having a strength of 0.9 log (cd s) m^−2 or higher. In the meantime, for the histological evaluation of the experimental group and the control group, their eyeballs were extracted from the animals which completed the electroretinogram test on the 5th day of the retinal degeneration induction to produce eyecups, and then they were embedded in wax to produce 5-μm fragments, which were then stained with Hematoxylin & Eosin and observed using a microscope.

[3] = 10 μl of 50 μM intravitreal at 30 min and 72 hours, ERG on 5th day

Structure (SMILES): CS(=O)(=O)N1CCC(Nc2cc(CN3CCS(=O)(=O)CC3)cc3cc(-c4ccccc4)[nH]c23)CC1 [compound 2, (5-(1,1-dioxo-thiomorpholine-4-yl)methyl-2-phenyl-1H-indole-7-yl)-(1-methanesulfonyl-piperidine-4-yl)-amine]
- survived cells (MTT assay) in comparison with control group [1]: statistically significant (* P<0.05; Student's t-test) survival results
- outer nuclear layer (ONL) and inner nuclear layer (INL) of retinal explant after low oxygen damage (white rat retina explant): well preserved

Structure (SMILES): O=S1(=O)CCN(Cc2cc(NCC3CCOCC3)c3[nH]c(-c4ccccc4)cc3c2)CC1 [compound 1, (tetrahydropyran-4-ylmethyl)-[2-phenyl-5-(1,1-dioxo-thiomorpholine-4-yl)methyl-1H-indole-7-yl]amine]
- time until corneal wound healed (Fluorescin stain) (corneal wound models; 50 μM eye drops at 12-hour intervals, saline control healed on the 4th to 5th day): ≤ 3 days
- healing effect on damaged corneal area (fluorescin staining) in comparison with control group (corneal wound models; 50 μM eye drops, damaged areas right after wound induction and on the third day): statistically significant (*** P<0.001) healing effect
- corneal epithelium in Hematoxylin & Eosin stained corneal tissue fragments (corneal wound models; 50 μM eye drops, third day of drug treatment, control epithelium remained damaged): completely restored
- ERG response higher than the control group [2, 3]: 200%
- electroretinogram a- and b-wave response compared to control group [2, 3]: increased response in both a- and b-waves
- retinal tissue fragments stained with Hematoxylin & Eosin (histology) ([2]; 10 μl of 50 μM intravitreal, 5th day, control showed severe retinal degeneration): close to a normal tissue; also recorded: well-aligned retinal structure

Reference: patent US20150038500A1, “PHARMACEUTICAL COMPOSITION FOR PREVENTING AND TREATING OPHTHALMIC DISORDERS” (CATHOLIC UNIVERSITY INDUSTRY-ACADEMIC COOPERATION FOUNDATION, priority 2011, published 2015)
